According to patent US6773895B2, “Method for identifying substances which positively influence inflammatory conditions of chronic inflammatory airway diseases” (Boehringer Ingelheim Pharma KG, priority 2000, dated 2004):

What was measured:
MonoMac6 cells = assay: Chemotaxis (migration) of MonoMac6 cells, 48-well chemotaxis chamber; assay type: cell-based, human; conditions: PMA-treated MonoMac6 cells, 4 hours of migration, fold increase in migrated cells over control medium
Procedure: Since an increased invasion of macrophages in peripheral airways of COPD patients can be observed, we tested the chemotactic ability of MonoMac6 cells which serve as a cell culture model for alveolar macrophages. Chemotaxis of MonoMac6 is determined by administering different ligands for FPRL-1.
MonoMac6 cells are treated with PMA for 24-30 hours in order to induce an activation state of the cells. Cells are harvested, washed twice with RPMI 1640 without supplements, and seeded at a density of 500,000 cells/well (24-well plate) in the presence of 10 nM PMA. After 24-30 hours cells are released from the substratum by repeated rinsing with a pipet, spun down, counted and adjusted to a density of 1×10^6 cells/ml of RPMI 1640 media without supplements but in the presence of 10 nM PMA. Chemotaxis is performed in a 48-well chemotaxis chamber (Neuroprobe Inc.) and polycarbonate membranes with a pore size of 8 μm (Neuroprobe Inc.). The lower wells of the chamber are filled with 28 μl of different concentrations of lipoxin A4, W-peptide, MCP-1 as a positive control, and RPMI 1640 media without supplements (including 10 nM PMA) as a negative control. The lower wells are covered with the polycarbonate membrane and the upper compartments of the chamber are filled with 50 μl of the cell suspension (50,000 cells per well). After 4 hours of migration at 37° C., 5% CO2 the cells on the upper part of the membrane are scraped off and the cells attached at the lower part of the membrane are stained with the Diff Quik Staining Set (Dade Behring) according to the manufacturer's protocol. Stained cells are counted in 6 to 8 high power fields at a magnification of 250× with a light microscope. The migration index represents the fold increase in the number of cells migrated in response to the chemoattractant over control medium.

neutrophils = conditions: cited from earlier work
IL-8 = assay: Expression of IL-8 in MonoMac 6 cells after stimulation with FPRL-1 ligands (TaqMan); conditions: 200 nM
Procedure: (§1) In order to examine the effects of ligands for FPRL-1, MonoMac6 cells are seeded at a density of 250,000 cells/ml in 24-well plates (with 2 ml per well), grown for 24 hours at 37° C., 5% CO2 in a humidified atmosphere before stimulation with 200 nM lipoxin A4 (Biomol), W-peptide (1 μM) (synthesized by Metabion, Martinsried), and LPS (Sigma) as a positive control. Cells are harvested at different time points, and total RNA is isolated as described above using the Qiagen RNeasy Total RNA Isolation Kit (Qiagen).
(§2) The RNA is used for Taqman analysis in order to monitor the expression of inflammatory markers like TNFα, IL-8, and MMP-12.

MMP-12 = assay: Expression of MMP-12 in MonoMac 6 cells after stimulation with FPRL-1 ligands (TaqMan); conditions: 200 nM
Procedure: as §1, §2

monocytes = conditions: cited from earlier work
TNFα = assay: Expression of TNFα in MonoMac 6 cells after stimulation with FPRL-1 ligands (TaqMan); conditions: 200 nM
Procedure: as §1, §2

human bronchi = conditions: cited from earlier work
FPRL-1 = assay: Expression of FPRL-1 in MonoMac6 cells after stimulation (TaqMan analysis); assay type: cell-based, human; conditions: 10 nM PMA
Procedure: MonoMac6 cells are cultivated in 24-well plates in RPMI 1640 media, supplemented with 10% FCS (low endotoxin), 2 mM glutamine, 1× non-essential amino acids, 200 U/ml penicillin, 200 μg/ml streptomycin, and 5 ml OPI media supplement (Sigma). Cells are grown to a density of 600,000 cells per well (2 ml media) and stimulated with 10 nM PMA (phorbol 12-myristate 13-acetate) (Sigma), or 20 ng/ml LPS (lipopolysaccharides from Salmonella minnesota Re595) (Sigma). For smoke exposure, cells are incubated in media enriched with smoke for 10 minutes at 37° C., 5% CO2 at a density of 1×10^6 cells/ml. Enrichment of RPMI 1640 media with smoke is performed with the smoke of two cigarettes. The smoke of the cigarettes is pulled into a 50 ml syringe (about 20 volumes of a 50-ml syringe per cigarette) and then perfused into 100 ml of RPMI 1640 media without supplements. Afterwards, the pH of the smoke-enriched media is adjusted to 7.4 and the media is sterilized through a 0.2 μm filter before use. After the exposure with smoke cells are washed at least twice with RPMI 1640 in order to remove residual smoke particles. Then cells are seeded in 24-well plates with 400,000-600,000 cells per well filled with 2 ml of fresh RPMI 1640 media including the supplements mentioned above.
Both cell types are cultivated at 37° C., 5% CO2 in a humidified atmosphere and cells are harvested at various time points in order to monitor time-dependent effects. Cells are spun down and washed with PBS, resuspended in 400 μl of RLT buffer (Qiagen RNeasy Total RNA Isolation Kit) with 143 mM β-mercaptoethanol, the DNA is sheared with a 20 g needle for at least 5 times and stored at −70° C.
Total RNAs are isolated with the Qiagen RNeasy Total RNA Isolation Kit (Qiagen) according to the manufacturer's protocol. Purified RNA is digested with RNase-free DNase (Qiagen) and used for TaqMan analysis.
Taqman analysis is used to determine mRNA-levels for FPRL-1 in cell lines after treatment with and without various stimuli at different time points. Total RNA isolated from U937 cells that were treated for 3 days with […] is used in order to optimize reaction conditions for determining the mRNA-levels of FPRL-1 and setting standard curves for FPRL-1 and GAPDH (glyceraldehyde-3-phosphate dehydrogenase) as a housekeeping gene. Quantification of FPRL-1 is done with the following primers: Forward primer (rhHM63 668FP, SEQ ID NO:22), Reverse primer (hHM63 525(+)RP, SEQ ID NO:23) and TaqMan probe (rhHM63 629(−)TP, SEQ ID NO:24) labeled with reporter dye FAM at the 5′ end and quencher dye TAMRA at the 3′ end. The mRNA-levels for GAPDH are determined with a predeveloped kit for GAPDH “TaqMan GAPDH Control Reagents” (P/N 402869) from PE Applied Biosystems. The GAPDH probe is labeled with JOE as the reporter dye and TAMRA as the quencher dye. RT-PCR reactions are performed with the “TaqMan EZ RT-PCR Core Reagents” (P/N N808-0236) kit from Perkin Elmer. Standard curves for FPRL-1 and GAPDH are performed with increasing concentrations of RNA from U937 cells treated with 1 μM retinoic acid ranging from 0, 5, 10, 25, 50 to 100 ng per assay. Reaction mixes contain 1× TaqMan EZ-buffer, 3 mM Mn(Oac)2, 300 μM dATP, dCTP, dGTP, and 600 μM dUTP, 2.5 U rTth DNA polymerase, 0.25 U AmpErase UNG in a total volume of 25 μl. For analysis of FPRL-1 reaction mixes include 300 nM of rhHM63 668(−)FP and hHM63 525(+)RP and 100 nM of rhHM63 629(−)TP. The primer concentrations for determining GAPDH levels are 200 nM for each primer and 100 nM for the Taqman probe. In order to determine mRNA levels for FPRL-1 and GAPDH in human subjects and cell lines, 16 to 50 ng RNA per reaction are used. All samples are run in triplicate. The reactions are performed with “MicroAmp Optical 96-well reaction plates” sealed with “MicroAmp Optical Caps” (PE Applied Biosystems) in an ABI PRISM 7700 Sequence Detection System (PE Applied Biosystems). […]

CSCC[C@H](NC(=O)[C@H](Cc1ccc(O)cc1)NC(=O)[C@H](CCCCN)NC(=O)[C@@H](N)Cc1c[nH]c2ccccc12)C(=O)N[C@H](C(=O)N[C@H](CCSC)C(N)=O)C(C)C [W-peptide, W-K-Y-M-V-m]
Migration Index (MonoMac6 cells; 10 nM): 0.95 | Migration Index (MonoMac6 cells; 100 nM): 1.23 | Migration Index (MonoMac6 cells; 1 μM): 2.46

monocyte chemotactic protein 1 [MCP-1]
Migration Index (MonoMac6 cells; 20 ng/ml): 2.59

CCCCC[C@H](O)/C=C/C=C\C=C\C=C\[C@@H](O)[C@@H](O)CCCC(=O)O [Lipoxin A4, lipoxin A4]
chemotaxis and adhesion in neutrophils (neutrophils): inhibits | transmigration through epithelial cells (neutrophils): downregulates | Expression of IL-8, Fold Induction (IL-8; t 0 h): 1.00 fold | Expression of IL-8, Fold Induction (IL-8; t 3 h): 1.99 fold | Expression of MMP-12, Fold Induction (MMP-12; t 0 h): 1.00 fold | Expression of MMP-12, Fold Induction (MMP-12; t 3 h): 1.42 fold | chemotaxis, adherence and calcium release in monocytes (monocytes): stimulates | Migration Index (MonoMac6 cells; 10 nM): 0.86 | Migration Index (MonoMac6 cells; 100 nM): 1.31 | Migration Index (MonoMac6 cells; 1 μM): 1.68 | Expression of TNFα, Fold Induction (TNFα; t 0 h): 1.00 fold | Expression of TNFα, Fold Induction (TNFα; t 3 h): 2.43 fold | contraction of human bronchi (human bronchi): dose-dependent contraction

CCCCCCCCCCCCCC(=O)O[C@@H]1[C@@H](C)[C@@]2(O)[C@@H](C=C(CO)C[C@]3(O)C(=O)C(C)=C[C@@H]23)[C@@H]2C(C)(C)[C@]12OC(C)=O [PMA, phorbol 12-myristate 13-acetate]
ng FPRL-1 mRNA/ ng GAPDH mRNA (FPRL-1; t 0 h): 0.00 ng FPRL-1 mRNA/ ng GAPDH mRNA | ng FPRL-1 mRNA/ ng GAPDH mRNA (FPRL-1; t 1 h): 0.00 ng FPRL-1 mRNA/ ng GAPDH mRNA | ng FPRL-1 mRNA/ ng GAPDH mRNA (FPRL-1; t 3 h): 0.00 ng FPRL-1 mRNA/ ng GAPDH mRNA | ng FPRL-1 mRNA/ ng GAPDH mRNA (FPRL-1; t 12 h): 0.00 ng FPRL-1 mRNA/ ng GAPDH mRNA | ng FPRL-1 mRNA/ ng GAPDH mRNA (FPRL-1; t 24 h): 0.00 ng FPRL-1 mRNA/ ng GAPDH mRNA | ng FPRL-1 mRNA/ ng GAPDH mRNA (FPRL-1; t 48 h): 0.43 ng FPRL-1 mRNA/ ng GAPDH mRNA | ng FPRL-1 mRNA/ ng GAPDH mRNA (FPRL-1; t 72 h): 0.01 ng FPRL-1 mRNA/ ng GAPDH mRNA
